Results published in ChEMBL document CHEMBL4422651, “Revisiting tubercidin against kinetoplastid parasites: Aromatic substitutions at position 7 improve activity and reduce toxicity” (Eur J Med Chem, 2019).
Calls of active or inactive are those of the source. The rule behind the calls is not given here.

Assays:
[1] = system: Trypanosoma brucei brucei; test: Antitrypanosomal activity against Trypanosoma brucei brucei Squib 427 after 48 hrs by alamar blue assay; format: functional, organism-based; settings: Squib 427, 48 h
[2] = system: Trypanosoma brucei rhodesiense; test: Antitrypanosomal activity against Trypanosoma brucei rhodesiense STIB-900 after 48 hrs by alamar blue assay; format: functional, organism-based; settings: STIB-900, 48 h
[3] = system: MRC5; test: Cytotoxicity against human MRC5 cells assessed as reduction in cell viability after 3 days by resazurin dye-based assay; settings: MRC5, 72 h
[4] = Selectivity index, ratio of EC50 for human MRC5 cells to EC50 for Trypanosoma brucei brucei Squib 427; format: toxicity; settings: read-out: Ratio EC50
[5] = Selectivity index, ratio of EC50 for human MRC5 cells to EC50 for Trypanosoma brucei rhodesiense STIB-900; format: toxicity; settings: read-out: Ratio EC50
[6] = system: Trypanosoma brucei; test: Antitrypanosomal activity against wild type Trypanosoma brucei Lister 427 after 48 hrs by alamar blue assay; format: functional, organism-based; settings: Lister 427, 48 h
[7] = system: Trypanosoma brucei; test: Antitrypanosomal activity against Trypanosoma brucei TbAT1-KO after 48 hrs by alamar blue assay; format: functional, organism-based
[8] = system: Trypanosoma brucei; test: Antitrypanosomal activity against pentamidine/diminazene/melaminophenyl arsenical resistant Trypanosoma brucei B48 after 48 hrs by alamar blue assay; format: functional, organism-based; settings: B48, 48 h
[9] = system: Trypanosoma brucei; test: Antitrypanosomal activity against isometamidium resistant Trypanosoma brucei ISMR1 after 48 hrs by alamar blue assay; format: functional, organism-based; settings: ISMR1, 48 h
[10] = system: Trypanosoma brucei; test: Resistance factor, ratio of EC50 for Trypanosoma brucei TbAT1-KO to EC50 for wild type Trypanosoma brucei Lister 427; format: functional
[11] = system: Trypanosoma brucei; test: Resistance factor, ratio of EC50 for pentamidine/diminazene/melaminophenyl arsenical resistant Trypanosoma brucei B48 to EC50 for wild type Trypanosoma brucei Lister 427; format: functional
[12] = system: Trypanosoma brucei; test: Resistance factor, ratio of EC50 for isometamidium resistant Trypanosoma brucei […] to EC50 for wild type Trypanosoma brucei Lister 427; format: functional
[13] = system: Trypanosoma cruzi; test: Antitrypanosomal activity against nifurtimox-sensitive Trypanosoma cruzi Tulahuen CL2 harboring beta-galactosidase infected in human MRC5 cells after 7 days by resazurin dye-based assay; format: functional, organism-based
[14] = Inhibition of [3H]-adenosine transport at Trypanosoma brucei Adenosine transporter P1 expressed in pentamidine/diminazene/melaminophenyl arsenical resistant Trypanosoma brucei B48 bloodstream forms after 60 secs by scintillation counting analysis
[15] = Inhibition of [3H]-adenosine transport at Trypanosoma brucei Adenosine transporter P2 expressed in pentamidine/diminazene/melaminophenyl arsenical resistant Trypanosoma brucei B48 bloodstream forms after 60 secs by scintillation counting analysis
[16] = system: CYP450; test: Drug metabolism in mouse liver S9 fraction assessed as CYP450-mediated metabolism by measuring parent compound remaining at 5 uM measured immediately in presence of NADPH by UPLC analysis; format: ADME, subcellular; settings: read-out: Stability
[17] = system: CYP450; test: Drug metabolism in mouse liver S9 fraction assessed as CYP450-mediated metabolism by measuring parent compound remaining at 5 uM measured after 15 mins in presence of NADPH by UPLC analysis; format: ADME, subcellular; settings: read-out: Stability
[18] = system: CYP450; test: Drug metabolism in mouse liver S9 fraction assessed as CYP450-mediated metabolism by measuring parent compound remaining at 5 uM measured after 30 mins in presence of NADPH by UPLC analysis; format: ADME, subcellular; settings: read-out: Stability
[19] = system: CYP450; test: Drug metabolism in mouse liver S9 fraction assessed as CYP450-mediated metabolism by measuring parent compound remaining at 5 uM measured after 60 mins in presence of NADPH by UPLC analysis; format: ADME, subcellular; settings: read-out: Stability
[20] = system: CYP450; test: Drug metabolism in rat liver S9 fraction assessed as CYP450-mediated metabolism by measuring parent compound remaining at 5 uM measured immediately in presence of NADPH by UPLC analysis; format: ADME, subcellular; settings: read-out: Stability
[21] = system: CYP450; test: Drug metabolism in rat liver S9 fraction assessed as CYP450-mediated metabolism by measuring parent compound remaining at 5 uM measured after 15 mins in presence of NADPH by UPLC analysis; format: ADME, subcellular; settings: read-out: Stability
[22] = system: CYP450; test: Drug metabolism in rat liver S9 fraction assessed as CYP450-mediated metabolism by measuring parent compound remaining at 5 uM measured after 30 mins in presence of NADPH by UPLC analysis; format: ADME, subcellular; settings: read-out: Stability
[23] = system: CYP450; test: Drug metabolism in rat liver S9 fraction assessed as CYP450-mediated metabolism by measuring parent compound remaining at 5 uM measured after 60 mins in presence of NADPH by UPLC analysis; format: ADME, subcellular; settings: read-out: Stability
[24] = molecular target: T1, CYP450 (Homo sapiens, UniProt P04798+P05177+P05181+P08684+P10632+P10635+P11509+P11712+P13584+P20813+P20815+P20853+P24462+P24903+P33260+P33261+P51589+P78329+P98187+Q02928+Q08477+Q16678+Q16696+Q5TCH4+Q6VVX0+Q7Z449+Q8TAV3+Q96SQ9+Q9HB55); test: Drug metabolism in human liver S9 fraction assessed as CYP450-mediated metabolism by measuring parent compound remaining at 5 uM measured immediately in presence of NADPH by UPLC analysis; format: ADME, subcellular; settings: read-out: Stability
[25] = molecular target: T1, CYP450; test: Drug metabolism in human liver S9 fraction assessed as CYP450-mediated metabolism by measuring parent compound remaining at 5 uM measured after 15 mins in presence of NADPH by UPLC analysis; format: ADME, subcellular; settings: read-out: Stability
[26] = molecular target: T1, CYP450; test: Drug metabolism in human liver S9 fraction assessed as CYP450-mediated metabolism by measuring parent compound remaining at 5 uM measured after 30 mins in presence of NADPH by UPLC analysis; format: ADME, subcellular; settings: read-out: Stability
[27] = molecular target: T1, CYP450; test: Drug metabolism in human liver S9 fraction assessed as CYP450-mediated metabolism by measuring parent compound remaining at 5 uM measured after 60 mins in presence of NADPH by UPLC analysis; format: ADME, subcellular; settings: read-out: Stability
[28] = system: UGT; test: Drug metabolism in mouse liver S9 fraction assessed as UGT-mediated metabolism by measuring parent compound remaining at 5 uM measured immediately in presence of UDPGA by UPLC analysis; format: ADME, subcellular; settings: read-out: Stability
[29] = system: UGT; test: Drug metabolism in mouse liver S9 fraction assessed as UGT-mediated metabolism by measuring parent compound remaining at 5 uM measured after 15 mins in presence of UDPGA by UPLC analysis; format: ADME, subcellular; settings: read-out: Stability
[30] = system: UGT; test: Drug metabolism in mouse liver S9 fraction assessed as UGT-mediated metabolism by measuring parent compound remaining at 5 uM measured after 30 mins in presence of UDPGA by UPLC analysis; format: ADME, subcellular; settings: read-out: Stability
[31] = Drug metabolism in mouse liver S9 fraction assessed as UGT-mediated metabolism by measuring parent compound remaining at 5 uM measured after 60 mins in presence of UDPGA by UPLC analysis; format: ADME, subcellular; settings: s9, 1 h
[32] = system: UGT; test: Drug metabolism in rat liver S9 fraction assessed as UGT-mediated metabolism by measuring parent compound remaining at 5 uM measured immediately in presence of UDPGA by UPLC analysis; format: ADME, subcellular; settings: read-out: Stability
[33] = system: UGT; test: Drug metabolism in rat liver S9 fraction assessed as UGT-mediated metabolism by measuring parent compound remaining at 5 uM measured after 15 mins in presence of UDPGA by UPLC analysis; format: ADME, subcellular; settings: read-out: Stability
[34] = Drug metabolism in rat liver S9 fraction assessed as UGT-mediated metabolism by measuring parent compound remaining at 5 uM measured after 30 mins in presence of UDPGA by UPLC analysis; format: ADME, subcellular; settings: s9, 0.5 h
[35] = Drug metabolism in rat liver S9 fraction assessed as UGT-mediated metabolism by measuring parent compound remaining at 5 uM measured after 60 mins in presence of UDPGA by UPLC analysis; format: ADME, subcellular; settings: s9, 1 h
[36] = molecular target: T2, UGT (Homo sapiens, UniProt O60656+O75310+O75795+P06133+P0DTE4+P0DTE5+P16662+P19224+P22309+P22310+P35503+P35504+P36537+P54855+Q6UWM9+Q9BY64+Q9HAW7+Q9HAW8+Q9HAW9); test: Drug metabolism in human liver S9 fraction assessed as UGT-mediated metabolism by measuring parent compound remaining at 5 uM measured immediately in presence of UDPGA by UPLC analysis; format: ADME, subcellular; settings: read-out: Stability
[37] = system: UDP-glucuronosyltransferases (UGTs); test: Drug metabolism in human liver S9 fraction assessed as UGT-mediated metabolism by measuring parent compound remaining at 5 uM measured after 15 mins in presence of UDPGA by UPLC analysis; format: ADME, subcellular; settings: s9, 0.25 h
[38] = system: UDP-glucuronosyltransferases (UGTs); test: Drug metabolism in human liver S9 fraction assessed as UGT-mediated metabolism by measuring parent compound remaining at 5 uM measured after 30 mins in presence of UDPGA by UPLC analysis; format: ADME, subcellular; settings: s9, 0.5 h
[39] = molecular target: T2, UGT; test: Drug metabolism in human liver S9 fraction assessed as UGT-mediated metabolism by measuring parent compound remaining at 5 uM measured after 60 mins in presence of UDPGA by UPLC analysis; format: ADME, subcellular; settings: read-out: Stability
[40] = system: Trypanosoma congolense; test: Antitrypanosomal activity against Trypanosoma congolense by resazurin assay; format: functional, organism-based

## Nc1ncnc2c1c(-c1ccccn1)cn2[C@@H]1O[C@H](CO)[C@@H](O)[C@H]1O
[1]
  EC50: 310 nM
[2]
  EC50: 31 nM
[3]
  EC50: 15100 nM
[4]
  selectivity ratio: 49
[5]
  selectivity ratio: 487
[6]
  EC50: 170 nM
[7]
  EC50: 400 nM
[8]
  EC50: 270 nM
[9]
  EC50: 430 nM
[10]
  Ratio EC50: 2.4
[11]
  Ratio EC50: 1.6
[12]
  Ratio EC50: 2.5
[13]
  Activity: inactive
[14]
  Ki: 2540 nM
[15]
  Ki: 4570 nM
[16]
  remaining at 0 min, 5 µM: 100%
[17]
  remaining at 0.25 h, 5 µM: 36.5%
[18]
  remaining at 0.5 h, 5 µM: 12.6%
[19]
  remaining at 1 h, 5 µM: 1.9%
[20]
  remaining at 0 min, 5 µM: 100%
[21]
  remaining at 0.25 h, 5 µM: 89%
[22]
  remaining at 0.5 h, 5 µM: 77%
[23]
  remaining at 1 h, 5 µM: 31%
[24]
  remaining at 0 min, 5 µM: 100%
[25]
  remaining at 0.25 h, 5 µM: 96%
[26]
  remaining at 0.5 h, 5 µM: 102%
[27]
  remaining at 1 h, 5 µM: 82%
[28]
  remaining at 0 min, 5 µM: 100%
[29]
  remaining at 0.25 h, 5 µM: 112%
[30]
  remaining at 0.5 h, 5 µM: 102%
[31]
  Stability: 122%
[32]
  remaining at 0 min, 5 µM: 100%
[33]
  remaining at 0.25 h, 5 µM: 115%
[34]
  Stability: 125%
[35]
  Stability: 122%
[36]
  remaining at 0 min, 5 µM: 100%
[37]
  Stability: 123%
[38]
  Stability: 121%
[39]
  remaining at 1 h, 5 µM: 92%
[40]
  EC50: 200 nM
